The text below walks through data of ChEMBL document CHEMBL1132052, “Solid-phase synthesis of benzisothiazolones as serine protease inhibitors” (Bioorg Med Chem Lett, 1999).

This experiment addresses Tryptase (Homo sapiens, UniProt Q9BZJ3+Q15661+Q9NRR2). Briefly: Compound was tested for inhibition of human mast cell tryptase. Format: protein assay.

Turning to `COc1ccc(CNC(=O)CCCC(=O)OCN2C(=O)c3ccccc3S2(=O)=O)cc1`, the 50% inhibitory concentration (IC50) is 0.43 µM.

In the case of `O=C(CCCC(=O)OCN1C(=O)c2ccccc2S1(=O)=O)NCc1ccc(Cl)c(Cl)c1`, the 50% inhibitory concentration (IC50) came to 0.23 µM.
